For 14 compounds, IC50 results are on record in patent US8163724B2, “Glucocorticosteroids, processes for their preparation, pharmaceutical compositions containing them and their use in therapy” (AstraZeneca AB, priority 2007, dated 2012).

This test addresses T1, recombinant human GR (Homo sapiens, UniProt P04150).
T1 construct: purchased Panvera/Invitrogen P2812 (kit P2893)
T1 sequence (P04150 1-777): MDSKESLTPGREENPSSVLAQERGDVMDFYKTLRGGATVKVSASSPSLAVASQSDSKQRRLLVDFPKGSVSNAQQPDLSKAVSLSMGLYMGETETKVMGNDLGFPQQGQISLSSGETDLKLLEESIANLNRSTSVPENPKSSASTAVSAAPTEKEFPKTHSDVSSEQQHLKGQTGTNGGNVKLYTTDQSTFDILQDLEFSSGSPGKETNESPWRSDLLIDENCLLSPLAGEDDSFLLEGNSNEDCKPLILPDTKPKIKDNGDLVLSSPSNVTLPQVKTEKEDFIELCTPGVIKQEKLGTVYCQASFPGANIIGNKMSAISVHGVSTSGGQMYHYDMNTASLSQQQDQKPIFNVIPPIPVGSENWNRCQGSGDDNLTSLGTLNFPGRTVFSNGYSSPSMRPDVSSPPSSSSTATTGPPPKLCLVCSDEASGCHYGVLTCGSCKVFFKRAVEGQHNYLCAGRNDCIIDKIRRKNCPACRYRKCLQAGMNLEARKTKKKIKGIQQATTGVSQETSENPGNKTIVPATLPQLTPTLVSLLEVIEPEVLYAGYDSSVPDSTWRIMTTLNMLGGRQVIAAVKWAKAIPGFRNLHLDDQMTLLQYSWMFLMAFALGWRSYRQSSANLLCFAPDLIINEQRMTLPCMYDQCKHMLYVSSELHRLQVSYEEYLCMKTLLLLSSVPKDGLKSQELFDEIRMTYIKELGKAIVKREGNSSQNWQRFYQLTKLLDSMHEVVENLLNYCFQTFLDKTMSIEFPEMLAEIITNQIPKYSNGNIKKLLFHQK
The test can be described thus: Human Glucocorticoid Receptor (GR) Assay (fluorescence polarization, Panvera/Invitrogen kit). The settings on record: fluorescence polarization; GS Red tracer; 2 hours at room temperature; 100% control 10 μM Dexamethasone; read-out: Inhibition of GR binding, IC50. It is filed as binding. An outline of the steps:
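Fluorescence polarization competition with recombinant GR and GS Red fluorescent ligand plus stabilizing peptide and DTT in potassium phosphate/sodium molybdate/EDTA buffer with DMSO. Incubated 2 hours at room temperature in the dark; 0% control DMSO, 100% control 10 μM dexamethasone.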

Take `COCC(=O)O[C@]1(C(=O)SCF)CC[C@H]2[C@@H]3CCC4=Cc5c(cnn5-c5ccc(F)cc5)C[C@]4(C)[C@H]3[C@@H](O)C[C@@]21C` [Example 34, (1R,3aS,3bS,10aR,10bS,11S,12aS)-1-{[(Fluoromethyl)thio]carbonyl}-7-(4-fluoro-phenyl)-11-hydroxy-10a,12a-dimethyl-1,2,3,3a,3b,4,5,7,10,10a,10b,11,12,12a-tetradecahydrocyclopenta[5,6]naphtho[1,2-f]indazol-1-yl methoxyacetate]: the IC50 was determined as 1.7 nM.

With `COCC(=O)O[C@]1(C(=O)SCC#N)CC[C@H]2[C@@H]3CCC4=Cc5c(cnn5-c5ccc(F)c(CO)c5)C[C@]4(C)[C@H]3[C@@H](O)C[C@@]21C` [Example 140, (1R,3aS,3bS,10R,10bS,11S,12aS)-1-{[(Cyanomethyl)thio]carbonyl}-7-[4-fluoro-3-(hydroxymethyl)phenyl]-11a,12a-dimethyl-1,2,3,3a,3b,4,5,7,10,10a,10b,11,12,12a-tetradecahydrocyclopenta[5,6]naphtho[1,2-f]indazol-1-yl Methoxyacetate], the 50% inhibitory concentration (IC50) worked out at 2.3 nM.

Take `C[C@]12Cc3cnn(-c4ccc(F)cc4)c3C=C1CC[C@H]1[C@@H]3CC[C@](OC(=O)C4CC4)(C(=O)SCC#N)[C@@]3(C)C[C@H](O)[C@@]12F` [Example 195, (1R,3aS,3bS,10aS,10bR,11S,12aS)-1-{[(Cyanomethyl)sulfanyl]carbonyl}-10b-fluoro-7-(4-fluorophenyl)-11-hydroxy-10a,12a-dimethyl-1,2,3,3a,3b,4,5,7,10,10a,10b,11,12,12a-tetradecahydrocyclopenta[5,6]naphtho[1,2]-indazol-1-yl cyclopropanecarboxylate]: the IC50 is 4.7 nM.

On to `COCc1cc(-n2ncc3c2C=C2CC[C@@H]4[C@H]([C@@H](O)C[C@@]5(C)[C@H]4CC[C@]5(OC(=O)c4ccco4)C(=O)SCF)[C@@]2(C)C3)ccc1F` [Example 74, (1R,3aS,3bS,10aR,10bS,11S,12aS)-7-[4-Fluoro-3-(methoxymethyl)phenyl]-1-{[(fluoromethyl)thio]carbonyl}-11-hydroxy-10a,12a-dimethyl-1,2,3,3a,3b,4,5,7,10,10a,10b,11,12,12a-tetradecahydrocyclopenta[5,6]naphtho[1,2-f]indazol-1-yl furan-2-carboxylate], for which the IC50 amounted to 22 nM.

`C[C@]12Cc3cnn(-c4ccc(F)c(CO)c4)c3C=C1CC[C@@H]1[C@@H]2[C@@H](O)C[C@@]2(C)[C@H]1CC[C@]2(OC(=O)c1ccco1)C(=O)SCC#N` [Example 80, (1R,3aS,3bS,10aR,10bS,11S,12aS)-1-{[(Cyanomethyl)thio]carbonyl}-7-[4-fluoro-3-(hydroxymethyl)phenyl]-11-hydroxy-10a,12a-dimethyl-1,2,3,3a,3b,4,5,7,10,10a,10b,11,12,12a-tetradecahydrocyclopenta[5,6]naphtho[1,2]-indazol-1-yl furan-2-carboxylate]: the IC50 is 4.2 nM.

`CCC(=O)O[C@]1(C(=O)SCF)CC[C@H]2[C@@H]3C[C@H](C)C4=Cc5c(cnn5-c5ccc(F)cc5)C[C@]4(C)[C@H]3[C@@H](O)C[C@@]21C` [Example 214, (1R,3aS,3bS,5S,10aR,10bS,11S,12aS)-1-{[(Fluoromethyl)sulfanyl]carbonyl}-7-(4-fluorophenyl)-11-hydroxy-5,10a,12a-trimethyl-1,2,3,3a,3b,4,5,7,10,10a,10b,11,12,12a-tetradecahydrocyclopenta[5,6]naphtho[1,2-f]indazol-1-yl propanoate]: the IC50 was determined as 49 nM.

For the compound `C[C@]12Cc3cnn(-c4cccc(Br)c4)c3C=C1CC[C@@H]1[C@@H]2[C@@H](O)C[C@@]2(C)[C@H]1CC[C@]2(OC(=O)c1ccco1)C(=O)SCF` [Example 71, (1R,3aS,10aR,10bS,11S,12aS)-7-(3-Bromophenyl)-1-{[(fluoromethyl)thio]carbonyl}-11-hydroxy-10a,12a-dimethyl-1,2,3,3a,3b,4,5,7,10,10a,10b,11,12,12a-tetradecaphydrocyclopenta[5,6]naphtho[1,2-f]indazol-1-yl furan-2-carboxylate], the IC50 turned out to be 13 nM.

For the compound `CCC(=O)O[C@]1(C(=O)SCOC)CC[C@H]2[C@@H]3CCC4=Cc5c(cnn5-c5ccc(F)cc5)C[C@]4(C)[C@H]3[C@@H](O)C[C@@]21C` [Example 14, (1R,3aS,3bS,10aR,10bS,11S,12aS)-7-(4-Fluorophenyl)-11-hydroxy-{[(methoxy-methyl)thio]carbonyl}-10a,12a-dimethyl-1,2,3,3a,3b,4,5,7,10,10a,10b,11,12,12a-tetradecahydrocyclopenta[5,6]naphtho[1,2-f]indazol-1-yl propanoate], the IC50 is 3.6 nM.

For `C[C@]12Cc3cnn(-c4cnccn4)c3C=C1CC[C@@H]1[C@@H]2[C@@H](O)C[C@@]2(C)[C@H]1CC[C@]2(OC(=O)C1CC1)C(=O)SCCO` [Example 190, (1R,3aS,3bS,10aR,10bS,11S,12aS)-11-Hydroxy-{[(2-hydroxyethyl)sulfanyl]carbonyl}-10a,12a-dimethyl-7-pyrazin-2-yl-1,2,3,3a,3b,4,5,7,10,10a,10b,11,12,12a-tetradecahydrocyclopenta[5,6]naphtho[1,2-f]indazol-1-yl cyclopropane carboxylate], the IC50 is 3.7 nM.

`Cc1nnsc1C(=O)O[C@]1(C(=O)SCC#N)CC[C@H]2[C@@H]3CCC4=Cc5c(cnn5-c5ccc(F)cc5)C[C@]4(C)[C@H]3[C@@H](O)C[C@@]21C` [Example 6, (1R,3aS,3bS,10aR,10bS,11S,12aS)-1-{[(Cyanomethyl)thio]carbonyl}-7-(4-fluorophenyl)-11-hydroxy-10a,12a-dimethyl-1,2,3,3a,3b,4,5,7,10,10a,10b,11,12,12a-tetradecahydrocyclopenta[5,6]naphtho[1,2-f]indazol-1-yl 4-methyl-1,2,3-thiadiazole-5-carboxylate]: the IC50 worked out at 5.9 nM.

In the case of `CC(C)CC(=O)O[C@]1(C(=O)SCC#N)CC[C@H]2[C@@H]3CCC4=Cc5c(cnn5-c5ccc(F)cc5)C[C@]4(C)[C@H]3[C@@H](O)C[C@@]21C` [Example 112, (1R,3aS,3bS,10aR,10bS,11S,12aS)-1-{[(Cyanomethyl)sulfanyl]carbonyl}-7-(4-fluorophenyl)-11-hydroxy-10a,12a-dimethyl-1,2,3,3a,3b,4,5,7,10,10a,10b,11,12,12a-tetradecahydrocyclopenta[5,6]naphtho[1,2-f]indazol-1-yl 3-methylbutanoate], the IC50 came out at 18 nM.

Turning to `C[C@]12Cc3cnn(-c4ccc(F)nc4)c3C=C1CC[C@H]1[C@@H]3CC[C@](OC(=O)c4ccco4)(C(=O)SCF)[C@@]3(C)C[C@H](O)[C@@]12F` [Example 212, (1R,3aS,3bS,10aS,10bR,11S,12aS)-1-{[(Fluoromethyl)sulfanyl]carbonyl}-10b-fluoro-7-(6-fluoropyridin-3-yl)-11-hydroxy-10a,12a-dimethyl-1,2,3,3a,3b,4,5,7,10a,10b,11,12,12a-tetradecahydrocyclopenta[5,6]naphtho[1,2-f]indazol-1-yl furan-2-carboxylate], the IC50 amounted to 2.1 nM.

As to `C[C@]12Cc3cnn(-c4ccc(F)cc4)c3C=C1CC[C@@H]1[C@@H]2[C@@H](O)C[C@@]2(C)[C@H]1CC[C@]2(OC(=O)c1ccno1)C(=O)SCCO` [Example 61, (1R,3aS,3bS,10aR,10bS,11S,12aS)-7-(4-Fluorophenyl)-11-hydroxy-1-{[(2-hydroxy-ethyl)thio]carbonyl}-10a,12a-dimethyl-1,2,3,3a,3b,4,5,7,10,10a,10b. 1,12,12a-tetradecahydrocyclopenta[5,6]naphtho[1,2-f]indazol-1-yl isoxazole-5-carboxylate], the IC50 worked out at 8.3 nM.

Turning to `COCc1cc(-n2ncc3c2C=C2CC[C@@H]4[C@H]([C@@H](O)C[C@@]5(C)[C@H]4CC[C@]5(OC(=O)c4ccco4)C(=O)SCC#N)[C@@]2(C)C3)ccc1F` [Example 73, (1R,3aS,3bS,10aR,10bS,11S,12aS)-1-{[(Cyanomethyl)thio]carbonyl}-7-[4-fluoro-3-(methoxymethyl)phenyl]-11-hydroxy-10a,12a-dimethyl-1,2,3,3a,3b,4,5,7,10,10a,10b,11,12,12a-tetradecahydrocyclopenta[5,6]naphtho[1,2-f]indazol-1-yl furan-2-carboxylate], the IC50 is 6.4 nM.

In general, IC50 refers to the concentration that gives 50% inhibition.
